Entries after “also recorded” stand apart in the source; their conditions may differ.
Tests used:
[1] = system: constrictive mouse model of trigeminal neuralgia; experiment: Mechanical allodynia (Von Frey filament) after constriction of the maxillary nerve; assay type: in vivo; settings: for mechanical allodynia (sensitivity to crude touch): WT mice, i.p. daily for two days before surgery and daily after behavior testing, sulforaphane, exemestane, letrozole 10 mg/kg, JQ-1 40 mg/kg, ascorbate 100 mg/kg, vs vehicle; for persistence of effects after treatment: daily i.p. dosing just after behavior testing
Protocol: (§1) Constriction of the Maxillary Nerve Constriction of the maxillary division of trigeminal nerve was performed as previously described (See Benedetti, A., et al., Biochimica Et Biophysica Acta Bba—Lipids Lipid Metabolism 620, 281-296 (1980) and Vos, B., et al J Neurosci 14, 2708-2723 (1994)). The procedure was performed under direct visualization and control with a surgical microscope. Mice were first anesthetized with ketamine (100 mg/kg, i.p.) and xylazine (12.5 mg/kg, i.p.) and monitored by pinching the skin between the toes with forceps and monitoring for withdrawal. Mice were restrained with adhesive tape to a sterilized polystyrene board. Upon sufficient anesthesia, the scalp was shaved and an anterior to posterior skin incision was made at the midline to expose the nasal and maxillary bones. The maxillary nerve was exposed and carefully dissected free from the surrounding connective tissue. The distal end of the maxillary nerve was then loosely constricted using 8-0 silk sutures as a ligature. The sutures were tied using a slip knot followed by a normal knot, after which any remaining suture was cut free. The incision was then closed with a 4-0 silk suture. In the sham procedure, the left maxillary nerve was exposed but not constricted. Mice were monitored and rehydrated until fully recovered from anesthesia.
(§2) Pharmacologic Treatments Mice were dosed with either sulforaphane (10 mg/kg, i.p.), exemestane (10 mg/kg, i.p.), letrozole (10 mg/kg, i.p.), (+)-JQ-1 (40 mg/kg, i.p.), (−)-JQ-1 (40 mg/kg, i.p.), or ascorbate (100 mg/kg, i.p.) as indicated below. Mice were first dosed daily for two days before surgery and again daily just after behavior testing. For local exemestane treatment, exemestane (5 μL, 25 μg total) was applied directly to the maxillary nerve. Mice received a single dose during surgery. Mice were dosed with AM-0902 (30 mg/kg, p.o.). Mice were treated with AM-0902 were dosed 30 min prior to behavior testing. Mice were dosed with tamoxifen (75 mg/kg, i.p.). Mice were dosed once every 24 hrs over 5 consecutive days. Behavioral and molecular tests were only performed 7 or more days after the final tamoxifen injection.
Mechanical Allodynia Mechanical allodynia was assessed in C57BL/6J, TRPA1^+/+, TRPA1^−/−, Keap1(f/f), and Keap1(f/f/CMV-CreER mice using a Von Frey filament as previously outlined (See Benedetti, A., et al., Biochimica Et Biophysica Acta Bba—Lipids Lipid Metabolism 620, 281-296 (1980) and Vos, B., et al J Neurosci 14, 2708-2723 (1994)). Animals were placed individually in transparent plastic boxes and allowed to acclimate to the environment for at least 30 min before testing. After habituation, a 0.04 g force Von Frey filament was used to stimulate the territory innervated by the maxillary nerve, including the vibrissal skin pad. Each mouse's response to the filament was scored from 0-4 on the scale below. Each mouse was scored ten times per day. Changes in mechanical allodynia were considered relative to sham- or vehicle-treated animal controls. Behavior was assessed concomitantly or in a blocked manner with consideration for both genotype and treatment. • 0—no response • 1—non-defensive response to the stimulus (e.g., mouse non-defensively explores filament) • 2—withdrawal response (e.g., mouse turns head away from filament) • 3—escape/attack response (e.g., mouse moves body away from filament and assumes crouching position against the box wall; actively attacks filament by biting and/or grabbing) • 4—asymmetric face grooming (e.g., mouse wipes stimulated facial area in uninterrupted series of at least three face-wash strokes)

[2] = system: constrictive mouse model of trigeminal neuralgia; experiment: Cold allodynia (ice-cold acetone) after constriction of the maxillary nerve; assay type: in vivo; settings: for cold allodynia (ice-cold acetone): WT mice, i.p. daily for two days before surgery and daily after behavior testing, sulforaphane, exemestane, letrozole 10 mg/kg, JQ-1 40 mg/kg, ascorbate 100 mg/kg, vs vehicle
Protocol: as §1, §2
Cold Allodynia Cold allodynia was assessed in C57BL/6J, TRPA1^+/+, TRPA1^−/−, Keap1(f/f), and Keap1(f/f)/CMV-CreER mice using ice-cold acetone as previously outlined (See Yoon, C., et al., Pain 59, 369-376 (1994)). Animals were placed individually in transparent plastic boxes and allowed to acclimatize to the environment for at least 30 min before testing. After habituation, 20 μl of cold acetone was applied to the ligated vibrissal pad skin surface. Cold allodynia was measured as the average time spent wiping the region in a 60 s period, with a maximum of 5 seconds between bouts of wiping. Allodynia was measured three times with 10 min between intervals. Changes in cold allodynia were considered relative to sham- or vehicle-treated animal controls. Behavior was assessed concomitantly or in a blocked manner with consideration for both genotype and treatment.

[3] = single local treatment, exemestane 25 μg/site applied directly to the maxillary nerve during surgery

| Compound | mechanical allodynia (sensitivity to crude touch) [1] | mechanical allodynia (sensitivity to crude touch) ([1]; listed as (+)-JQ-1) | persistence of effects after treatment [1] [h] | cold allodynia (ice-cold acetone) [2] | cold allodynia (ice-cold acetone) ([2]; listed as (+)-JQ-1) | duration of analgesic effect ([1]; mouse, in vivo) | mechanical allodynia [1, 3] | cold allodynia [2, 3] |
| --- | --- | --- | --- | --- | --- | --- | --- | --- |
| Cc1sc2c(c1C)C(c1ccc(Cl)cc1)=N[C@@H](CC(=O)OC(C)(C)C)c1nnc(C)n1-2 [JQ-1, (S)-tert-butyl 2-(4-(4-chlorophenyl)-2,3,9-trimethyl-6H-thieno[3,2-f][1,2,4]triazolo[4,3-a][1,4]diazepin-6-yl)acetate] | much less sensitive | lowered | 24 | much less sensitive | lowered |  |  |  |
| C=C1C[C@@H]2[C@H](CC[C@]3(C)C(=O)CC[C@@H]23)[C@@]2(C)C=CC(=O)C=C12 [exemestane, 6-methylenandrosta-1,4-diene-3,17-dione] | much less sensitive; also recorded: lowered |  | 24 | much less sensitive; also recorded: lowered |  | persists over the course of days to weeks | lessened | lessened |
| C[S+]([O-])CCCCN=C=S (centres unmarked) [sulforaphane, 1-isothiocyanato-4-(methanesulfinyl)butane] | less sensitive |  | 24 | less sensitive |  |  |  |  |

Reference: patent publication US20250064846A1, “TREATMENT AND PREVENTION OF TRIGEMINAL NEURALGIA” (THE JOHNS HOPKINS UNIVERSITY, priority 2022, published 2025)
